Values quoted from earlier work as cited in patent publication US20250049023A1, “FUNGICIDAL COMPOSITIONS” (SYNGENTA CROP PROTECTION AG, priority 2021, published 2025).

Tested on: Mycosphaerella graminicola (Septoria tritici)
Conditions: as disclosed in prior filings

For `COc1ccnc(C(=O)N[C@@H](C)C(=O)O[C@@H](C)C(c2ccc(F)cc2)c2ccc(F)cc2)c1OC(C)=O` [Florylpicoxamid, (1S)-2,2-bis(4-fluorophenyl)-1-methylethyl N-{[3-(acetyloxy)-4-methoxy-2-pyridyl]carbonyl}-L-alaninate], the “control of wheat leaf blotch disease (in words)” value is given as “particularly effective”.
